Data as given in ChEMBL document CHEMBL1201862, “PubChem BioAssay data set” (2004).
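Following 48 hours of exposure in 96-well plates, responses at five concentrations were used to interpolate endpoints linearly. Abbreviation: GI50, concentration required for 50% inhibition of growth.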 Calls of active or inactive are those of the source. Rule as the data show it: active = GI50 up to about 1.1 µM and inactive = higher.

What was measured:
Experiment in all cases: NCI anticancer screen, dose series, 48 h
[1] = test system: DU-145
[2] = test system: RPMI-8226
[3] = test system: HL-60
[4] = test system: Hs-578T
[5] = test system: SK-MEL-28
[6] = test system: BT-549
[7] = test system: OVCAR-4
[8] = test system: MDA-N
[9] = test system: NCI-H23
[10] = test system: 786-0
[11] = test system: K562
[12] = test system: SNB-75
[13] = test system: SK-MEL-5
[14] = test system: KM12
[15] = test system: NCI-H460
[16] = test system: PC-3
[17] = test system: HCC 2998
[18] = test system: SF-295
[19] = test system: OVCAR-8
[20] = test system: NCI-H522
[21] = test system: SK-MEL-2
[22] = test system: LOX IMVI
[23] = test system: OVCAR-3
[24] = test system: SF-268
[25] = test system: HCT-116
[26] = test system: SR
[27] = test system: SF-539
[28] = test system: IGROV-1
[29] = test system: HOP-92
[30] = test system: EKVX
[31] = test system: SNB-19
[32] = test system: HCT-15
[33] = test system: HOP-62
[34] = test system: MOLT-4
[35] = test system: A549
[36] = test system: SW-620
[37] = test system: UACC-257
[38] = test system: CCRF-CEM
[39] = test system: Malme-3M
[40] = test system: OVCAR-5
[41] = test system: HT-29
[42] = test system: UO-31
[43] = test system: SK-OV-3
[44] = test system: COLO 205
[45] = test system: MDA-MB-435
[46] = test system: CAKI-1
[47] = test system: SN12C
[48] = test system: NCI/ADR-RES
[49] = test system: M14
[50] = test system: RXF 393
[51] = test system: T47D
[52] = test system: NCI-H226
[53] = test system: TK-10
[54] = test system: MDA-MB-231
[55] = test system: ACHN
[56] = test system: MCF7
[57] = test system: UACC-62
[58] = test system: A498
[59] = test system: U-251

In the case of `COc1cccc(/N=C/c2cc3cc(Br)ccc3nc2Cl)c1`, the GI50 [1] is reported as 48.8 µM (inactive), the GI50 [2] is reported as 2.96 µM (inactive) and the GI50 [3] is reported as 10 µM (inactive). For the same molecule, the GI50 [4] was 40.6 µM (inactive), the GI50 [5] was > 50 µM (inactive) and the GI50 [6] was 47 µM (inactive). The GI50 [7] was 0.736 µM (active), the GI50 [8] was 13.6 µM (inactive) and the GI50 [9] was 22.1 µM (inactive). For the same molecule, the GI50 [10] was 2.91 µM (inactive), the GI50 [11] was 8.09 µM (inactive) and the GI50 [12] was 17.1 µM (inactive). For the same molecule, the GI50 [13] was 36.1 µM (inactive), the GI50 [14] was 9.75 µM (inactive) and the GI50 [15] was 13.8 µM (inactive). For the same molecule, the GI50 [16] was 8.67 µM (inactive), the GI50 [17] was 15 µM (inactive) and the GI50 [18] was 39.4 µM (inactive). For the same molecule, the GI50 [19] was 2.95 µM (inactive), the GI50 [20] was 8.43 µM (inactive) and the GI50 [21] was 13.7 µM (inactive). For the same molecule, the GI50 [22] was 18.9 µM (inactive), the GI50 [23] was 34.4 µM (inactive) and the GI50 [24] was 20.1 µM (inactive). The GI50 [25] was 11.2 µM (inactive), the GI50 [26] was 1.85 µM (inactive) and the GI50 [27] was 13.1 µM (inactive). The GI50 [28] was 12.6 µM (inactive), the GI50 [29] was 30.3 µM (inactive) and the GI50 [30] was > 50 µM (inactive). For the same molecule, the GI50 [31] was > 50 µM (inactive), the GI50 [32] was 35.3 µM and the GI50 [33] was 41.4 µM (inactive). The GI50 [34] was 7.05 µM (inactive), the GI50 [35] was > 50 µM (inactive) and the GI50 [36] was 11.8 µM (inactive). The GI50 [37] was 44.5 µM (inactive), the GI50 [38] was 4.78 µM (inactive) and the GI50 [39] was > 50 µM (inactive). The GI50 [40] was > 50 µM (inactive), the GI50 [41] was 27 µM (inactive) and the GI50 [42] was 12.5 µM (inactive). The GI50 [43] was 15.2 µM (inactive), the GI50 [44] was > 50 µM (inactive) and the GI50 [45] was 11.1 µM (inactive). For the same molecule, the GI50 [46] was 7.06 µM (inactive), the GI50 [47] was 15.5 µM (inactive) and the GI50 [48] was 17.2 µM (inactive). The GI50 [49] was > 50 µM (inactive), the GI50 [50] was 13.7 µM (inactive) and the GI50 [51] was 10.5 µM (inactive). For the same molecule, the GI50 [52] was 5.58 µM (inactive).

`COc1cc(O)c2c(=O)c(OC)c(-c3ccc(OC)c(OC)c3)oc2c1.[Zn+2]` was tested, and the GI50 [2] was 57.9 µM (inactive), the GI50 [3] was > 100 µM (inactive) and the GI50 [4] was 2.67 µM (inactive). For the same molecule, the GI50 [6] was 17.8 µM (inactive), the GI50 [8] was > 100 µM (inactive) and the GI50 [10] was 10.4 µM (inactive). For the same molecule, the GI50 [12] was 1.75 µM (inactive), the GI50 [15] was 17.1 µM (inactive) and the GI50 [20] was 4.38 µM (inactive). The GI50 [53] was 66.1 µM (inactive), the GI50 [27] was 20.8 µM (inactive) and the GI50 [35] was 53.2 µM (inactive). The GI50 [43] was 5.12 µM (inactive), the GI50 [46] was 11.2 µM (inactive) and the GI50 [47] was 61.2 µM (inactive). The GI50 [50] was 5.81 µM (inactive) and the GI50 [52] was 54.8 µM (inactive).

With `CN(C)c1ccc(/C=C2\C[C@H]3[C@@H]4CCc5cc(OCCN6CCCC6)ccc5[C@H]4CC[C@]3(C)C2=O)cc1` the GI50 [54] was 1.53 µM (inactive), the GI50 [1] was 1.89 µM (inactive) and the GI50 [2] was 1.75 µM (inactive). The GI50 [55] was 1.73 µM (inactive), the GI50 [5] was 1.53 µM (inactive) and the GI50 [6] was 3.39 µM (inactive). For the same molecule, the GI50 [7] was 1.63 µM (inactive), the GI50 [8] was 1.85 µM (inactive) and the GI50 [9] was 3.25 µM (inactive). The GI50 [10] was 1.32 µM (inactive), the GI50 [56] was 1.52 µM (inactive) and the GI50 [11] was 1.08 µM (active). For the same molecule, the GI50 [12] was 1.71 µM (inactive), the GI50 [13] was 1.73 µM (inactive) and the GI50 [14] was 1.74 µM (inactive). The GI50 [15] was 1.59 µM (inactive), the GI50 [16] was 1.78 µM (inactive) and the GI50 [17] was 1.53 µM (inactive). For the same molecule, the GI50 [18] was 1.86 µM (inactive), the GI50 [21] was 1.98 µM (inactive) and the GI50 [53] was 1.64 µM (inactive). The GI50 [25] was 1.21 µM (inactive), the GI50 [26] was 0.333 µM (active) and the GI50 [27] was 1.59 µM (inactive). The GI50 [28] was 1.13 µM (inactive), the GI50 [30] was 2.2 µM (inactive) and the GI50 [31] was 1.89 µM (inactive). The GI50 [32] was 1.26 µM, the GI50 [34] was 1.31 µM (inactive) and the GI50 [35] was 1.5 µM (inactive). For the same molecule, the GI50 [37] was 2.21 µM (inactive), the GI50 [38] was 1.13 µM (inactive) and the GI50 [40] was 2.03 µM (inactive). The GI50 [41] was 0.288 µM (active), the GI50 [42] was 1.54 µM (inactive) and the GI50 [43] was 1.87 µM (inactive). For the same molecule, the GI50 [44] was 1.52 µM (inactive), the GI50 [45] was 1.55 µM (inactive) and the GI50 [57] was 1.9 µM (inactive). For the same molecule, the GI50 [46] was 1.45 µM (inactive), the GI50 [47] was 1.62 µM (inactive) and the GI50 [48] was 1.91 µM (inactive). The GI50 [58] was 1.96 µM (inactive), the GI50 [50] was 1.57 µM (inactive) and the GI50 [51] was 1.77 µM (inactive). The GI50 [52] was 1.82 µM (inactive).

For `CN(C)c1nc(N(C)C)nc(N(C)C23CC4CC(CC(C4)C2)C3)n1`, the GI50 [54] was 23.8 µM (inactive), the GI50 [1] was 41.1 µM (inactive) and the GI50 [2] was 23.7 µM (inactive). The GI50 [55] was 41.3 µM (inactive), the GI50 [5] was 46.5 µM (inactive) and the GI50 [6] was 27.7 µM (inactive). The GI50 [7] was 44.8 µM (inactive), the GI50 [8] was 21 µM (inactive) and the GI50 [9] was 13.4 µM (inactive). The GI50 [10] was 40.5 µM (inactive), the GI50 [56] was 37.6 µM (inactive) and the GI50 [11] was 49.3 µM (inactive). For the same molecule, the GI50 [12] was 24.3 µM (inactive), the GI50 [14] was 44.5 µM (inactive) and the GI50 [15] was 53.1 µM (inactive). The GI50 [16] was 24.5 µM (inactive), the GI50 [17] was 39.6 µM (inactive) and the GI50 [18] was 18.4 µM (inactive). For the same molecule, the GI50 [19] was 32.1 µM (inactive), the GI50 [20] was 16.9 µM (inactive) and the GI50 [21] was 25.1 µM (inactive). For the same molecule, the GI50 [23] was 17.1 µM (inactive), the GI50 [24] was 39.5 µM (inactive) and the GI50 [25] was 20.5 µM (inactive). The GI50 [26] was 39.1 µM (inactive), the GI50 [27] was 31.8 µM (inactive) and the GI50 [28] was 17.1 µM (inactive). The GI50 [29] was 21.8 µM (inactive), the GI50 [30] was 32 µM (inactive) and the GI50 [31] was 31.7 µM (inactive). The GI50 [32] was over 100 µM, the GI50 [33] was 24 µM (inactive) and the GI50 [35] was 39.3 µM (inactive). The GI50 [36] was 34.4 µM (inactive), the GI50 [37] was 34.3 µM (inactive) and the GI50 [38] was 22.4 µM (inactive). The GI50 [39] was 33 µM (inactive), the GI50 [40] was 21.4 µM (inactive) and the GI50 [42] was 61.1 µM (inactive). The GI50 [43] was 17.9 µM (inactive), the GI50 [44] was 15.1 µM (inactive) and the GI50 [59] was 30.1 µM (inactive). For the same molecule, the GI50 [45] was 40.2 µM (inactive), the GI50 [57] was 56.8 µM (inactive) and the GI50 [46] was > 100 µM (inactive). For the same molecule, the GI50 [48] was > 100 µM (inactive), the GI50 [49] was 33.3 µM (inactive) and the GI50 [58] was > 100 µM (inactive). For the same molecule, the GI50 [50] was 20 µM (inactive), the GI50 [51] was 31.4 µM (inactive) and the GI50 [52] was 32.6 µM (inactive).
